Data taken from US11780822B2, “HDAC inhibitor solid state forms” (Viracta Subsidiary, Inc., priority 2019, dated 2023).
Entries after “also recorded” stand apart in the source; their conditions may differ. Blank lines part the entries; values can stand above or below the compound they belong to.

How the values were obtained:
Format in all cases: physicochemical
[1] = Competitive suspension equilibrations of Form A + Form B composites; details: stirred overnight
Protocol: Objective: Determine the fates of the Form A and Form B when equilibrated in ethanol under anhydrous and aqueous conditions at 20° C. and 40° C.
Procedure: Composites, prepared from equimolar amounts of Form A and Form B were charged to separate vials and ethanol (13 vol) or ethanol/water (10/3 v/v, 13 vol) were added. The two pairs of mixtures were stirred at 20° C. or 40° C. overnight.

[2] = Effect of elevated humidity, desiccator analysis at equilibrium humidity; details: for Δwt. Percent: RH 75-80%; for Output Form designation (XRPD): after exposure to 75 to 80% RH at 18 to 23° C. for 72 h
Protocol: The effect of elevated humidity (75 to 80% RH at 18 to 23° C.) on the thermally dehydrated Form A residue from the preceding experiment, was examined via conventional desiccator analysis at equilibrium humidity. Compound 1 Form A (ca. 16 mg) was heated at a rate of +10° C./min from 20 to 160° C. to include the first endothermic event and exclude the second event (see FIG. 2). The content of the spent crucible was exposed to 75 to 80% RH (relative humidity) at 18 to 23° C. for 72 h. The corresponding weight changes were recorded and the internal conditions of the humidity enclosures were monitored. The absorbent increased in weight (refer to Table 4), but this was not accompanied by a significant change in the diffraction pattern, or dehydration event by DSC.

[3] = Thermal investigations (heating in DSC, residue analysed by XRPD or 1H NMR)
Protocol: A Mettler Toledo DSC 821 instrument was used for the thermal analysis operating with STARe™ software. The analysis was conducted in […], open aluminum pans, under nitrogen and sample sizes ranged from 1 to 10 mg. Typical analysis method was 20 to 250 at 10° C./minute.
Procedure: First experiment-A sample of compound 1 Form A containing 5.1% w/w water and 0.2% w/w ethanol (ca. 16 mg) was heated at a rate of +10° C./min from 20 to 160° C. to include the first endothermic event and exclude the second event (refer to FIG. 2).
(§1) Procedure: First event: A sample of compound 1 Form C (ca. 7 mg) was heated at a rate of +10° C./min from 20 to 120° C. to include the first endothermic event (refer to FIG. 9). The content of the spent crucible was expressed, the residue was analyzed by XRPD and the diffraction pattern was compared to the input diffraction pattern.
as §1, with “Third” for “Procedure: First”, “5” for “7”, “150°” for “120°”, “multiple thermal events” for “first endothermic event”
Procedure: First event: a sample of compound 1 Form E (ca. 8 mg) was heated at a rate of +10° C./min from 20 to 160° C. to include the first endothermic event and exclude the second event (refer to FIG. 11). The content of the spent crucible was expressed, the residue was analyzed by XRPD and the diffraction pattern was compared to the input diffraction pattern (see FIG. 12).

[4] = Dynamic Vapor Sorption (DVS) analyses; details: for Hygroscopicity by DVS: 25° C., RH 0-90-0%; for Weight lost during the pre-equilibration: DVS at 25° C., drying 0% RH for 120 min
Protocol: Use the following parameters: • Equilibrium: dm/dt: 0.002%/min. (for min: 10 min and max: 180 min). • Drying: 0% RH for 120 min • RH (%) measurement step: 5% • RH (%) measurement step scope: 0-90-0% The criteria for hygroscopicity evaluation are listed in below: DVS analysis was performed on compound 1 Form A and compound 1 Form B to determine the degree of hygroscopicity. The results are provided in FIGS. 13A, FIG. 13B, FIG. 14A and FIG. 14B.

[5] = Suspension equilibration of single Form A and B under production conditions; details: 40° C., stirred overnight
Protocol: Objective: Determine the fates of single Form A and B when equilibrated in ethanol under anhydrous and aqueous conditions at 40° C.
Procedure: Form B and Form A were charged to separate vials. Ethanol/water (10/3 v/v, 13 vol) and ethanol (13 vol) were added, respectively. The mixtures were stirred at 20° C. or 40° C. overnight.

[6] = Anhydrous suspension equilibrations of Form A at 20° C. and 40° C.; details: stirred 7 to 10 days at 40° C.
Protocol: Objective: Examine the effect of suspension equilibration of compound 1 under anhydrous conditions at 20° C. and 40° C. and determine the physical form of the products.
Procedure: Compound 1 (ca 50 mg, 1.0 wt) and the appropriate solvent (1000 μl, 20 vol) were charged to separate vessels and two parallel banks of experiments were stirred for 7 to 10 days at 20° C. and 40° C. After this time the products were cooled, isolated by filtration, washed with recycled maturation solvent, dried under reduced pressure at 20° C. and analyzed by XRPD for evidence of alternative crystalline forms.

[7] = heated at +10° C./min from 20 to 160° C.

SMILES: O=C(NO)c1cnc(N2C[C@@H]3[C@H](C2)[C@H]3NCc2ccc3cc(F)ccc3n2)nc1 [Form A + Form B (1/1 w/w)]
Output form (XRPD) ([1]; Ethanol, 20° C.): B (Major | Output form (XRPD) ([1]; Ethanol, 20° C., listed as composite Form A+B): near complete conversion into Form B | Output form (XRPD) ([1]; Ethanol, 40° C.): Form B | Output form (XRPD) ([1]; Ethanol, 40° C., listed as composite Form A+B): complete turnover into single Form B | Output form (XRPD) ([1]; Ethanol/water (10/3 v/v), 20° C.): Form A | Output form (XRPD) ([1]; Ethanol/water (10/3 v/v), 20° C., listed as composite Form A+B): single Form A | Output form (XRPD) ([1]; Ethanol/water (10/3 v/v), 40° C.): Form A | Output form (XRPD) ([1]; Ethanol/water (10/3 v/v), 40° C., listed as composite Form A+B): single Form A

SMILES: O=C(NO)c1cnc(N2C[C@@H]3[C@H](C2)[C@H]3NCc2ccc3cc(F)ccc3n2)nc1 [Form A after heating up to 160° C.]
Δwt. Percent ([2]; 0 h @ 18-23° C.): 0.0% w/w | Δwt. Percent ([2]; 1 h @ 18-23° C.): 14.6% w/w | Δwt. Percent ([2]; 24 hr @ 18-23° C.): 13.2% w/w | Δwt. Percent ([2]; 72 hr @ 18-23° C.): 14.6% w/w | Output Form designation (XRPD) [2]: Isostructural | Output Form designation (XRPD) ([2]; listed as Form A dehydrate): did not revert back to Form A

SMILES: O=C(NO)c1cnc(N2C[C@@H]3[C@H](C2)[C@H]3NCc2ccc3cc(F)ccc3n2)nc1 [Form A, N-hydroxy 2-{6-[(6-fluoro-quinolin-2-ylmethyl)-amino]-3-aza-bicyclo[3.1.0]hex-3-yl}pyrimidine-5-carboxamide]
Form of residue after heating (XRPD) [3, 7]: consistent with Form B | State after heating (1H NMR) ([3]; heated at +10° C./min from 20 to 230° C., cooled): extensive degradation | Large exothermic event (DSC, confirmed by 1H NMR) ([3]; post heating to 200° C.): consistent with degradation | Hygroscopicity by DVS [4]: neither being hygroscopic; also recorded: not hygroscopic | Weight lost during the pre-equilibration [4]: ~0.25 % w/w | Output form (XRPD) ([5]; Ethanol): converted to Form B | Output form (XRPD) ([5]; Ethanol, listed as Form A (A0822-170-AD1)): Form B | Output form @ 40° C. (XRPD) ([6]; 1,4-dioxane (20 vol)): A + B | Output form @ 40° C. (XRPD) ([6]; 2-Propanol (20 vol)): A + B | Output form @ 40° C. (XRPD) ([6]; Acetone (20 vol)): A + B | Output form @ 40° C. (XRPD) ([6]; Anisole (20 vol)): A + B | Output form @ 40° C. (XRPD) ([6]; Butanol (20 vol)): A + B | Output form @ 40° C. (XRPD) ([6]; Chlorobenzene (20 vol)): A + B | Output form @ 40° C. (XRPD) ([6]; Cumene (20 vol)): A + B | Output form @ 40° C. (XRPD) ([6]; Dichloromethane (20 vol)): A + B | Output form @ 40° C. (XRPD) ([6]; Ethyl acetate (20 vol)): A + B | Output form @ 40° C. (XRPD) ([6]; Ethyl ether (20 vol)): A + B | Output form @ 40° C. (XRPD) ([6]; Heptane (20 vol)): A + B | Output form @ 40° C. (XRPD) ([6]; Isopropyl acetate (20 vol)): A + B | Output form @ 40° C. (XRPD) ([6]; Methyl acetate (20 vol)): A + B | Output form @ 40° C. (XRPD) ([6]; Nitromethane (20 vol)): A + B | Output form @ 40° C. (XRPD) ([6]; Propionitrile (20 vol)): A + B | Output form @ 40° C. (XRPD) ([6]; Tetrahydrofuran (20 vol)): A + B | Output form @ 40° C. (XRPD) ([6]; Trifluorotoluene (20 vol)): A + B | Output form @ 40° C. (XRPD) ([6]; tert-Butylmethyl ether (20 vol)): A + B

SMILES: O=C(NO)c1cnc(N2C[C@@H]3[C@H](C2)[C@H]3NCc2ccc3cc(F)ccc3n2)nc1 [Form B, N-hydroxy 2-{6-[(6-fluoro-quinolin-2-ylmethyl)-amino]-3-aza-bicyclo[3.1.0]hex-3-yl}pyrimidine-5-carboxamide]
Hygroscopicity by DVS [4]: neither being hygroscopic | Form conversion at high water activity ([4]; 40° C., high water activity, stated among the DVS observations): promoted the conversion into Form A | Weight lost during the pre-equilibration [4]: 0.03 % w/w | Output form (XRPD) ([5]; Ethanol/water (10/3 v/v)): mixture Form A and B | Output form (XRPD) ([5]; Ethanol/water (10/3 v/v), listed as Form B (A0822-170-AC1)): A + B

Now from value to compound, other results behind:

Form of residue after heating (XRPD) ([3]; heated at +10° C./min from 20 to 150° C.): converted into isostructural Form B
SMILES: O=C(NO)c1cnc(N2C[C@@H]3[C@H](C2)[C@H]3NCc2ccc3cc(F)ccc3n2)nc1 [Form C, N-hydroxy 2-{6-[(6-fluoro-quinolin-2-ylmethyl)-amino]-3-aza-bicyclo[3.1.0]hex-3-yl}pyrimidine-5-carboxamide]
Form of residue after heating (XRPD) ([3]; heated at +10° C./min from 20 to 120° C.): consistent with an isomorphic desolvate/dehydrate

Form of residue after heating (XRPD) [3, 7]: consistent with Form B
SMILES: O=C(NO)c1cnc(N2C[C@@H]3[C@H](C2)[C@H]3NCc2ccc3cc(F)ccc3n2)nc1 [Form E, N-hydroxy 2-{6-[(6-fluoro-quinolin-2-ylmethyl)-amino]-3-aza-bicyclo[3.1.0]hex-3-yl}pyrimidine-5-carboxamide]
